# Test results from article PMC8359193, “Summary of reference chemicals evaluated by the fish short‐term reproduction assay, OECD TG229, using Japanese Medaka, Oryzias latipes” (Journal of Applied Toxicology, 2021).
# “Also recorded” adds a separate entry of the source. Like-named read-outs stand apart in the source and are kept apart here.
# Biological target: T1, medaka Esr1 (mEsr1) (Oryzias latipes, UniProt P50241)
# T1 construct: expressed in transfected cells; host or cells: HEK293 (human embryonic kidney cells), transient transfection with FuGENE HD
# T1 sequence (P50241 1-620): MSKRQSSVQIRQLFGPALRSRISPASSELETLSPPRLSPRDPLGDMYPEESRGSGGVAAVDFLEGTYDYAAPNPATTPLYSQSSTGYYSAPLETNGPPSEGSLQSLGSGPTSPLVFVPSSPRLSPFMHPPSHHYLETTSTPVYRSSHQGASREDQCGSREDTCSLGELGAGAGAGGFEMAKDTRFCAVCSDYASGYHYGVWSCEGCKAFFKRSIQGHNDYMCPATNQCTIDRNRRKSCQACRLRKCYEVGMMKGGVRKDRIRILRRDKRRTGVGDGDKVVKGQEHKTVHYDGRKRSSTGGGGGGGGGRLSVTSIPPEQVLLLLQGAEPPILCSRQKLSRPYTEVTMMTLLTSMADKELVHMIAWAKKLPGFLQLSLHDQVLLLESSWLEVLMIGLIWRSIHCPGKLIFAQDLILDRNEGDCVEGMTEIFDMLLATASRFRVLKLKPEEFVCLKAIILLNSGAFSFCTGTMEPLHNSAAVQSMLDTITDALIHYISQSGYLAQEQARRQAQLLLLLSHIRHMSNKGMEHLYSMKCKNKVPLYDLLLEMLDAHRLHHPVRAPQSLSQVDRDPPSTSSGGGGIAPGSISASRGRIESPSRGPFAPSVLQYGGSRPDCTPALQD
# Assay: Medaka Esr1 reporter gene assay (RGA), antagonist assay with 1 nM E2, HEK293 cells
# Type: cell-based, Japanese medaka (Oryzias latipes)
# Method: To support interpretation of the biological effects observed in the FSTRA studies, in vitro RGAs using medaka Esr1 (mEsr1) and medaka ARβ (mARβ) were performed for the 16 test chemicals. In the present study, Esr1 and ARβ, which are ancestral subtypes among Esrs and ARs in Japanese medaka, were selected based on the phylogenetical analyses of Esr and AR with each receptor RGAs (Ogino et al., [2016], [2018]; Tohyama et al., [2015]).
# The mEsr1 RGA consisting of agonist and antagonist assays were performed according to the methods previously reported (Katsu et al., [2010]; Lange et al., [2012]; Miyagawa et al., [2014]). Briefly, human embryonic kidney cells 293 (HEK293), precultured, were seeded in 96‐well plates at 15,000 cells/well with 200 μl of culture medium, phenol‐red‐free Dulbecco's Modified Eagle's medium (ThermoFisher Scientific K.K., Tokyo, Japan) supplemented with 2‐mM L‐glutamine and 10% charcoal/dextran‐treated fetal bovine serum (Hyclone, UT, USA), and then incubated for 24 h in 5% CO2 at 37°C. After the 24‐h incubation, 20 μl of test medium containing 40 ng of medaka Esr1/pcDNA3.1, 80 ng of ERE‐TK‐Luc, and 20 ng of pRL‐TK‐Rlu and 1.2 μL of transfection reagent FuGENE HD (Promega, WI, USA) were added into each well. The assay plates were incubated for another 4 h in order to transfect the three vectors into the HEK293 cells. After the vectors were successfully transfected, in agonist assay, 24 μl of concentrated test chemical solution was applied to the test medium in the plate wells. […] After chemical treatment for 40 h, luciferase activity of the cells was measured, and the promoter activity was calculated as firefly (Photinus pyralis)‐/sea pansy (Renilla reniformis)‐luciferase activity in each well. The luciferase activities were quantified by a chemiluminescence assay with Dual‐Luciferase Reporter Assay System (Promega) in accordance with the manufacturer's instructions, and luminescence intensity of firefly and sea pansy luciferin was measured using a luminometer, TriStar LB941 (Berthold Technology, Oak Ridge, TN, USA).
# Effect concentrations, that is, EC50 (a half maximal effective concentration) in the agonist assay and IC50 (a half maximal inhibitory concentration) in the antagonist assay, were estimated by nonlinear curve fitting (e.g., three parameters logistic regression curve) using GraphPad Prism (GraphPad Software Inc., La Jolla, CA, USA).
# [1] = mEsr1 RGA antagonist assay, 1 nM E2-mediated transactivation, ND = no significant response even at the highest assay concentration (in parentheses), read-out: Antagonist assay, IC50, Medaka Esr1
SMILES,IC50 [µM],IC50 [1] [µM],mEsr1 antagonist activity (in words) (1 nM E2-mediated mEsr1 transactivation)
"CC(=O)N1CCN(c2ccc(OCC3COC(Cn4ccnc4)(c4ccc(Cl)cc4Cl)O3)cc2)CC1 (stereo not shown) [KCZ, Ketoconazole]",> 10,,
"C[C@]12CCC(=O)C=C1CC[C@@H]1[C@@H]2CC[C@@]2(C)[C@H]1CC[C@]2(C)O [MT, 17α‐methyltestosterone]",,> 10,
"CC(=O)[C@H]1CC[C@H]2[C@@H]3CCC4=CC(=O)CC[C@]4(C)[C@H]3CC[C@]12C [P4, Progesterone]",> 10,,
"CCCCCCCCCCCCOS(=O)(=O)[O-].[Na+] [SDS, Sodium dodecyl sulfate]",,> 100,no Esr inhibiting activity; also recorded: neithEsr agonistic nor antagonistic activity
"C[C@]12C=CC3=C4CCC(=O)C=C4CC[C@H]3[C@@H]1CC[C@@H]2O [TRB, 17β‐Trenbolone]",> 10,,
"C#C[C@]1(O)CC[C@H]2[C@@H]3CCC4=CC(=O)CC[C@@H]4[C@H]3CC[C@@]21CC [LNG, Levonorgestrel]",> 100,,
